# System: insulin resistant adipocytes (3T3 L1)
# Test: In vitro model exhibiting insulin resistance (IR assay): 14C-2-deoxyglucose uptake
# Assay type: cell-based
# Details: glucose uptake; for fold induction at 10 µM: Mus musculus, dexamethasone-induced insulin resistant 3T3 L1 adipocytes, test compound 10 μM/mL, vehicle = 1.0, cut off 1.50 fold, read-out: Fold activity (fold activity over vehicle); for % of Rosiglitazone (comparison with Rosiglitazone): insulin resistant 3T3 L1 adipocytes, test compound 10 μM vs Rosiglitazone 0.1 μM
# Protocol: The assay was designed as in the reference, British Journal of Pharmacology, 130, 351-58, 2000, the disclosure of which is incorporated by reference for the teaching of the assay. The solution of test compound (10 μM/mL) was prepared in DMSO. […] Differentiation into adipocytes was induced by the known methods as described below. (See, also, J. Biol. […] 3T3 L1 fibroblasts were seeded in 24- or 6-well plates at a density of 0.5−2×10^4 cells/well and were allowed to reach maximal confluency. The confluent fibroblasts were exposed to culture medium for 2 days. […] The mature adipocytes were exposed to dexamethasone, 100 nM added in ethanol, in culture medium and incubated for 2 days. […] The test compound was also present during this period. After 3-4 hours, the medium was aspirated and replaced with Kreb's Ringer phosphate (KRP) buffer at pH 7.4 and with human/porcine insulin, 200 nM. The cells were incubated for 30 minutes at 37° C. […] After exactly 5 minutes, the plates were transferred to ice trays and medium was rapidly aspirated. The cell layer was washed twice with ice-cold phosphate buffered saline, (PBS), pH 7.4. […] Non-specific glucose uptake was assayed in wells exposed to cytochalasin B, inhibitor of glucose transport. […] Statistical analysis was performed using unpaired t-test.
Compound,fold induction at 10 µM,% of Rosiglitazone (comparison with Rosiglitazone) [%]
"O=S(=O)(Nc1cnc(Oc2cnc3ccccc3c2)c(Cl)c1)c1ccc(C(F)(F)F)cc1Cl [Example 33, 2-Chloro-N-(5-chloro-6-(quinolin-3-yloxy)pyridin-3-yl)-4-(trifluoromethyl)benzene-sulfonamide]",2.58 ± 0.11,68.59 ± 4.81
"O=S(=O)(Nc1cnc(Oc2ccc3ncccc3c2)c(Cl)c1)c1ccc(F)cc1F [Example 48, N-(5-Chloro-6-(quinolin-6-yloxy)pyridin-3-yl)-2,4-difluorobenzenesulfonamide]",1.82 ± 0.13,36.7 ± 7.3
"N#Cc1ccc(S(=O)(=O)Nc2cnc(Oc3cc4ccccc4cn3)c(Cl)c2)cc1 [Example 5, N-(5-Chloro-6-(isoquinolin-3-yloxy)pyridin-3-yl)-4-cyanobenzenesulfonamide]",2.41 ± 0.12,55.1 ± 4.8
"Cc1ccc(S(=O)(=O)Nc2cnc(Oc3cc4ccccc4cn3)c(Cl)c2)cc1Cl [Example 3, 3-Chloro-N-(5-chloro-6-(isoquinolin-3-yloxy)pyridin-3-yl)-4-methylbenzenesulfonamide]",2.3 ± 0.16,52 ± 6.5
"COc1ccc(S(=O)(=O)Nc2cnc(Oc3cc4ccccc4cn3)c(Cl)c2)cc1OC [Example 22, N-(5-Chloro-6-(isoquinolin-3-yloxy)pyridin-3-yl)-3,4-dimethoxybenzenesulfonamide]",1.76 ± 0.58,15.8 ± 1.8
"O=S(=O)(Nc1cnc(Oc2cnc3ccccc3c2)c(Cl)c1)c1ccc(Cl)cc1Cl [Example 27, 2,4-Dichloro-N-(5-chloro-6-(quinolin-3-yloxy)pyridin-3-yl)benzenesulfonamide]",2.01 ± 0.23,57 ± 15.64
"O=S(=O)(Nc1cnc(Oc2cc3ccccc3cn2)c(Cl)c1)c1ccc(Cl)cc1F [Example 13, 4-Chloro-N-(5-chloro-6-(isoquinolin-3-yloxy)pyridin-3-yl)-2-fluorobenzenesulfonamide]",1.4 ± 0.07,19.5 ± 3.51
"O=S(=O)(c1ccc(Cl)cc1Cl)N(c1cnc(Oc2cnc3ccccc3c2)c(Cl)c1)S(=O)(=O)c1ccc(Cl)cc1Cl [Example 45, 2,4-Dichloro-N-[(2,4-dichlorophenyl)sulfonyl]-N-[5-chloro-6-(quinolin-3-yloxy)pyridin-3-yl]-benzenesulfonamide]",2.13 ± 0.04,59.5 ± 2.26
"Cc1ccc(S(=O)(=O)Nc2cnc(Oc3cnc4ccccc4c3)c(Cl)c2)cc1 [Example 28, N-(5-Chloro-6-(quinolin-3-yloxy)pyridin-3-yl)-4-methylbenzenesulfonamide]",2.6 ± 0.17,71.77 ± 7.48
"O=S(=O)(Nc1cnc(Oc2cc3ccccc3cn2)c(Cl)c1)c1ccc(OC(F)(F)F)cc1 [Example 18, N-(5-Chloro-6-(isoquinolin-3-yloxy)pyridin-3-yl)-4-(trifluoromethoxy)benzene-sulfonamide]",1.77 ± 0.1,65
"O=S(=O)(Nc1cnc(Oc2cnc3ccccc3c2)c(Cl)c1)c1ccc(Cl)c(Cl)c1 [Example 29, 3,4-Dichloro-N-(5-chloro-6-(quinolin-3-yloxy)pyridin-3-yl)benzenesulfonamide]",2.01 ± 0.09,76 ± 6.11
"O=S(=O)(Nc1cnc(Oc2cc3ccccc3cn2)c(Cl)c1)c1ccc(C(F)(F)F)cc1Cl [Example 20, 2-Chloro-N-(5-chloro-6-(isoquinolin-3-yloxy)pyridin-3-yl)-4(trifluoromethyl)benzene sulfonamide]",2.4 ± 0.68,36.7 ± 0.96
"COc1ccc(OC)c(S(=O)(=O)Nc2cnc(Oc3cc4ccccc4cn3)c(Cl)c2)c1 [Example 19, N-(5-Chloro-6-(isoquinolin-3-yloxy)pyridin-3-yl)-2,5-dimethoxybenzenesulfonamide]",1.67 ± 0.13,50 ± 10.12

# From patent US8269010B2, “3-amino-pyridine derivatives for the treatment of metabolic disorders” (Piramal Healthcare Limited, priority 2006, dated 2012)
